Experiment: xn = mol fraction of the nth substance listed
Details: 101 kPa

Work on `C[n+]1ccn(CCCC#N)c1.O=S(=O)([O-])C(F)(F)F` + CC#N yielded an electrical conductivity (288.15 K, x1 = 0.2002) of 1.88 S/m, a viscosity (288.15 K, x1 = 0.2002) of 6.79 mPa·s and an electrical conductivity (288.15 K, x1 = 0.4006) of 0.55 S/m. The viscosity (288.15 K, x1 = 0.4006) was 70.7 mPa·s, the electrical conductivity (288.15 K, x1 = 0.6005) was 0.175 S/m and the viscosity (288.15 K, x1 = 0.6005) was 160 mPa·s. The electrical conductivity (288.15 K, x1 = 0.698) was 0.07 S/m, the viscosity (288.15 K, x1 = 0.698) was 340 mPa·s and the electrical conductivity (288.15 K, x1 = 0.7996) was 0.053 S/m. It also gave a viscosity (288.15 K, x1 = 0.7996) of 579 mPa·s, an electrical conductivity (288.15 K, x1 = 0.9007) of 0.031 S/m and a viscosity (288.15 K, x1 = 0.9007) of 874 mPa·s. The electrical conductivity (288.15 K, x1 = 1) was 0.023 S/m, the viscosity (288.15 K, x1 = 1) was 1182 mPa·s and the electrical conductivity (293.15 K, x1 = 0.1002) was 2.87 S/m. For the same compound, the viscosity (293.15 K, x1 = 0.1002) was 1.51 mPa·s, the electrical conductivity (293.15 K, x1 = 0.2002) was 2.08 S/m and the viscosity (293.15 K, x1 = 0.2002) was 5.95 mPa·s. For the same compound, the electrical conductivity (293.15 K, x1 = 0.2994) was 1.19 S/m, the viscosity (293.15 K, x1 = 0.2994) was 14.1 mPa·s and the electrical conductivity (293.15 K, x1 = 0.4006) was 0.651 S/m. It also gave a viscosity (293.15 K, x1 = 0.4006) of 55.5 mPa·s, an electrical conductivity (293.15 K, x1 = 0.5) of 0.246 S/m and a viscosity (293.15 K, x1 = 0.5) of 85.7 mPa·s. For the same compound, the electrical conductivity (293.15 K, x1 = 0.698) was 0.093 S/m, the viscosity (293.15 K, x1 = 0.698) was 255 mPa·s and the electrical conductivity (293.15 K, x1 = 0.7996) was 0.079 S/m. The viscosity (293.15 K, x1 = 0.7996) was 417 mPa·s, the electrical conductivity (293.15 K, x1 = 0.9007) was 0.044 S/m and the viscosity (293.15 K, x1 = 0.9007) was 625 mPa·s. It also gave an electrical conductivity (293.15 K, x1 = 1) of 0.033 S/m, a viscosity (293.15 K, x1 = 1) of 811 mPa·s and an electrical conductivity (298.15 K, x1 = 0.1002) of 3.04 S/m. For the same compound, the viscosity (298.15 K, x1 = 0.1002) was 1.4 mPa·s, the electrical conductivity (298.15 K, x1 = 0.2002) was 2.28 S/m and the viscosity (298.15 K, x1 = 0.2002) was 5.23 mPa·s. It also gave an electrical conductivity (298.15 K, x1 = 0.2994) of 1.35 S/m, a viscosity (298.15 K, x1 = 0.2994) of 12.15 mPa·s and an electrical conductivity (298.15 K, x1 = 0.4006) of 0.766 S/m. The viscosity (298.15 K, x1 = 0.4006) was 44.44 mPa·s, the electrical conductivity (298.15 K, x1 = 0.5) was 0.315 S/m and the viscosity (298.15 K, x1 = 0.5) was 68.6 mPa·s. The electrical conductivity (298.15 K, x1 = 0.6005) was 0.278 S/m, the viscosity (298.15 K, x1 = 0.6005) was 92 mPa·s and the electrical conductivity (298.15 K, x1 = 0.698) was 0.124 S/m. The viscosity (298.15 K, x1 = 0.698) was 195.4 mPa·s, the electrical conductivity (298.15 K, x1 = 0.9007) was 0.061 S/m and the viscosity (298.15 K, x1 = 0.9007) was 450 mPa·s. It also gave an electrical conductivity (298.15 K, x1 = 1) of 0.046 S/m, a viscosity (298.15 K, x1 = 1) of 581 mPa·s and an electrical conductivity (303.15 K, x1 = 0.1002) of 3.22 S/m. It also gave a viscosity (303.15 K, x1 = 0.1002) of 1.3 mPa·s, an electrical conductivity (303.15 K, x1 = 0.2002) of 2.49 S/m and a viscosity (303.15 K, x1 = 0.2002) of 4.65 mPa·s. For the same compound, the electrical conductivity (303.15 K, x1 = 0.2994) was 1.51 S/m, the viscosity (303.15 K, x1 = 0.2994) was 10.55 mPa·s and the electrical conductivity (303.15 K, x1 = 0.4006) was 0.896 S/m. The viscosity (303.15 K, x1 = 0.4006) was 36.24 mPa·s, the electrical conductivity (303.15 K, x1 = 0.5) was 0.394 S/m and the viscosity (303.15 K, x1 = 0.5) was 54.8 mPa·s. For the same compound, the electrical conductivity (303.15 K, x1 = 0.6005) was 0.345 S/m, the viscosity (303.15 K, x1 = 0.6005) was 72.2 mPa·s and the electrical conductivity (303.15 K, x1 = 0.698) was 0.163 S/m. It also gave a viscosity (303.15 K, x1 = 0.698) of 149 mPa·s, an electrical conductivity (303.15 K, x1 = 0.7996) of 0.151 S/m and a viscosity (303.15 K, x1 = 0.7996) of 230 mPa·s. For the same compound, the electrical conductivity (308.15 K, x1 = 0.1002) was 3.41 S/m, the viscosity (308.15 K, x1 = 0.1002) was 1.21 mPa·s and the electrical conductivity (308.15 K, x1 = 0.2002) was 2.69 S/m. For the same compound, the viscosity (308.15 K, x1 = 0.2002) was 4.18 mPa·s, the electrical conductivity (308.15 K, x1 = 0.4006) was 1.03 S/m and the viscosity (308.15 K, x1 = 0.4006) was 29.81 mPa·s. For the same compound, the electrical conductivity (308.15 K, x1 = 0.5) was 0.485 S/m, the viscosity (308.15 K, x1 = 0.5) was 44.07 mPa·s and the electrical conductivity (308.15 K, x1 = 0.6005) was 0.419 S/m. It also gave a viscosity (308.15 K, x1 = 0.6005) of 57.2 mPa·s, an electrical conductivity (308.15 K, x1 = 0.698) of 0.213 S/m and a viscosity (308.15 K, x1 = 0.698) of 116.3 mPa·s. It also gave an electrical conductivity (308.15 K, x1 = 0.7996) of 0.193 S/m, a viscosity (308.15 K, x1 = 0.7996) of 174 mPa·s and an electrical conductivity (308.15 K, x1 = 0.9007) of 0.106 S/m. The viscosity (308.15 K, x1 = 0.9007) was 245 mPa·s, the electrical conductivity (313.15 K, x1 = 0.1002) was 3.57 S/m and the viscosity (313.15 K, x1 = 0.1002) was 1.13 mPa·s. For the same compound, the electrical conductivity (313.15 K, x1 = 0.2994) was 1.88 S/m, the viscosity (313.15 K, x1 = 0.2994) was 8.05 mPa·s and the electrical conductivity (313.15 K, x1 = 0.4006) was 1.17 S/m. The viscosity (313.15 K, x1 = 0.4006) was 24.79 mPa·s, the electrical conductivity (313.15 K, x1 = 0.6005) was 0.5 S/m and the viscosity (313.15 K, x1 = 0.6005) was 46.5 mPa·s. It also gave an electrical conductivity (313.15 K, x1 = 0.698) of 0.274 S/m, a viscosity (313.15 K, x1 = 0.698) of 91.3 mPa·s and an electrical conductivity (313.15 K, x1 = 0.9007) of 0.135 S/m. For the same compound, the viscosity (313.15 K, x1 = 0.9007) was 185 mPa·s, the electrical conductivity (313.15 K, x1 = 1) was 0.104 S/m and the viscosity (313.15 K, x1 = 1) was 231 mPa·s. It also gave an electrical conductivity (318.15 K, x1 = 0.2002) of 3.08 S/m, a viscosity (318.15 K, x1 = 0.2002) of 3.41 mPa·s and an electrical conductivity (318.15 K, x1 = 0.2994) of 2.08 S/m. It also gave a viscosity (318.15 K, x1 = 0.2994) of 7.12 mPa·s, an electrical conductivity (318.15 K, x1 = 0.4006) of 1.32 S/m and a viscosity (318.15 K, x1 = 0.4006) of 21.09 mPa·s. It also gave an electrical conductivity (318.15 K, x1 = 0.6005) of 0.593 S/m, a viscosity (318.15 K, x1 = 0.6005) of 37.8 mPa·s and an electrical conductivity (318.15 K, x1 = 0.7996) of 0.288 S/m. It also gave a viscosity (318.15 K, x1 = 0.7996) of 104.7 mPa·s, an electrical conductivity (318.15 K, x1 = 1) of 0.131 S/m and a viscosity (318.15 K, x1 = 1) of 177.1 mPa·s. For the same compound, the electrical conductivity (323.15 K, x1 = 0.2002) was 3.28 S/m, the viscosity (323.15 K, x1 = 0.2002) was 3.13 mPa·s and the electrical conductivity (323.15 K, x1 = 0.2994) was 2.29 S/m. The viscosity (323.15 K, x1 = 0.2994) was 6.32 mPa·s, the electrical conductivity (323.15 K, x1 = 0.4006) was 1.48 S/m and the viscosity (323.15 K, x1 = 0.4006) was 18.37 mPa·s. The electrical conductivity (323.15 K, x1 = 0.5) was 0.781 S/m, the viscosity (323.15 K, x1 = 0.5) was 25.17 mPa·s and the electrical conductivity (323.15 K, x1 = 0.698) was 0.44 S/m. The viscosity (323.15 K, x1 = 0.698) was 61.3 mPa·s, the electrical conductivity (323.15 K, x1 = 0.7996) was 0.341 S/m and the viscosity (323.15 K, x1 = 0.7996) was 83.4 mPa·s. The electrical conductivity (323.15 K, x1 = 0.9007) was 0.205 S/m, the viscosity (323.15 K, x1 = 0.9007) was 104.8 mPa·s and the electrical conductivity (323.15 K, x1 = 1) was 0.161 S/m. For the same compound, the viscosity (323.15 K, x1 = 1) was 141.4 mPa·s.
